Assay results from publication PMC7717600, “Novel [(N-alkyl-3-indolylmethylene)hydrazono]oxindoles arrest cell cycle and induce cell apoptosis by inhibiting CDK2 and Bcl-2: synthesis, biological evaluation and in silico studies” (Journal of Enzyme Inhibition and Medicinal Chemistry, 2020).

Tests used:
[1] = test system: NCI-H460; test: NCI SRB screening; format: cell-based, human; details: NCI-H460, 10 μM
[2] = test system: COLO 205; test: NCI SRB screening; format: cell-based, human; details: COLO 205, 10 μM
[3] = test system: M14; test: NCI SRB screening; format: cell-based; details: M14, 10 μM
[4] = test system: PC-3; test: NCI SRB screening; format: cell-based, human; details: PC-3, 10 μM
[5] = test system: A-549; test: SRB anti-proliferative assay; format: cell-based; details: Homo sapiens, A549; A-549, SRB, mean ± SE of 3
Method: Staurosporine, a clinically used antitumor drug, was co-assayed as a reference agent for the experiment.
(§1) Examination of the cytotoxic activity for the target conjugates was carried out in accordance with the SRB colorimetric assay protocol, as described previously.
(§2) In vitro anti-proliferative activity assay
(§3) Cells at a concentration of 0.50 x
(§4) Sulfo-Rhodamine-B stain (SRB) assay.
(§5) cell to the wall of the plate.
(§6) wells were prepared for each individual dose).
(§7) Unbound dye was removed by four

[6] = test system: HCT-116; test: SRB anti-proliferative assay; format: cell-based; details: Homo sapiens; HCT-116, SRB, mean ± SE of 3
Method: (§8) All the newly prepared target conjugates (7, 8a–c, 9 and 10a–e) were investigated for the prospective growth inhibitory actions against three different cancer cell lines viz.; A-549, MDA-MB-231, and HCT-116, using the sulforhodamine B colorimetric (SRB) assay. Staurosporine, a clinically used antitumor drug, was co-assayed as a reference agent for the experiment.
as §1, §2, §3, §4, §5, §6, §7

[7] = test system: MDA-MB-231; test: SRB anti-proliferative assay; format: cell-based; details: Homo sapiens; MDA-MB-231, SRB, mean ± SE of 3
Method: as §8, §1, §2, §3, §4, §5, §6, §7

[8] = test system: CCRF-CEM; details: 10 μM
[9] = test system: HL-60(TB); details: HL-60(TB), 10 μM
[10] = test system: K-562; details: K-562, 10 μM
[11] = test system: MOLT-4; details: MOLT-4, 10 μM
[12] = test system: RPMI-8226; details: RPMI-8226, 10 μM
[13] = test system: SR; details: 10 μM
[14] = test system: A549/ATCC; details: 10 μM
[15] = test system: EKVX; details: 10 μM
[16] = test system: HOP-92; details: HOP-92, 10 μM
[17] = test system: HT29; details: HT29, 10 μM
[18] = test system: KM12; details: KM12, 10 μM
[19] = test system: SW-620; details: SW-620, 10 μM
[20] = test system: SF-268; details: SF-268, 10 μM
[21] = test system: SF-539; details: SF-539, 10 μM
[22] = test system: SNB-19; details: SNB-19, 10 μM
[23] = test system: SNB-75; details: SNB-75, 10 μM
[24] = test system: MALME-3M; details: 10 μM
[25] = test system: SK-MEL-2; details: SK-MEL-2, 10 μM
[26] = test system: SK-MEL-28; details: SK-MEL-28, 10 μM
[27] = test system: SK-MEL-5; details: SK-MEL-5, 10 μM
[28] = test system: UACC-257; details: UACC-257, 10 μM
[29] = test system: IGROV1; details: IGROV1, 10 μM
[30] = test system: OVCAR-3; details: OVCAR-3, 10 μM
[31] = test system: OVCAR-5; details: OVCAR-5, 10 μM
[32] = test system: OVCAR-8; details: OVCAR-8, 10 μM
[33] = test system: SK-OV-3; details: SK-OV-3, 10 μM
[34] = test system: 786-0; details: 786-0, 10 μM
[35] = test system: ACHN; details: 10 μM
[36] = test system: SN12C; details: 10 μM
[37] = test system: TK-10; details: TK-10, 10 μM
[38] = test system: UO-31; details: UO-31, 10 μM
[39] = test system: MCF7; details: MCF7, 10 μM
[40] = test system: MDA-MB-231/ATCC; details: MDA-MB-231, 10 μM
[41] = test system: BT-549; details: BT-549, 10 μM
[42] = test system: T-47D; details: 10 μM
[43] = test system: NCI-H322M; test: NCI SRB screening; details: 10 μM

CCCn1cc(C=NN=C2C(=O)Nc3ccc([N+](=O)[O-])cc32)c2ccccc21 [Compound 8c]
GI % [1]: 19%
GI % [2]: – (Only GI % higher than 10% are shown)
GI % [3]: – (Only GI % higher than 10% are shown)
GI % [4]: – (Only GI % higher than 10% are shown)
IC50 [5]: 12.3 ± 1.05 µM
IC50 [6]: 6.4 ± 0.5 µM
IC50 [7]: 15.6 ± 0.98 µM
GI % [8]: – (Only GI % higher than 10% are shown)
GI % [9]: 10%
GI % [10]: 18%
GI % [11]: – (Only GI % higher than 10% are shown)
GI % [12]: – (Only GI % higher than 10% are shown)
GI % [13]: 19%
GI % [14]: 13%
GI % [15]: – (Only GI % higher than 10% are shown)
GI % [16]: 11%
GI % [17]: – (Only GI % higher than 10% are shown)
GI % [18]: 11%
GI % [19]: – (Only GI % higher than 10% are shown)
GI % [20]: – (Only GI % higher than 10% are shown)
GI % [21]: 10%
GI % [22]: 22%
GI % [23]: – (Only GI % higher than 10% are shown)
GI % [24]: – (Only GI % higher than 10% are shown)
GI % [25]: – (Only GI % higher than 10% are shown)
GI % [26]: – (Only GI % higher than 10% are shown)
GI % [27]: – (Only GI % higher than 10% are shown)
GI % [28]: – (Only GI % higher than 10% are shown)
GI % [29]: – (Only GI % higher than 10% are shown)
GI % [30]: – (Only GI % higher than 10% are shown)
GI % [31]: – (Only GI % higher than 10% are shown)
GI % [32]: 29%
GI % [33]: – (Only GI % higher than 10% are shown)
GI % [34]: – (Only GI % higher than 10% are shown)
GI % [35]: – (Only GI % higher than 10% are shown)
GI % [36]: – (Only GI % higher than 10% are shown)
GI % [37]: – (Only GI % higher than 10% are shown)
GI % [38]: – (Only GI % higher than 10% are shown)
GI % [39]: 15%
GI % [40]: – (Only GI % higher than 10% are shown)
GI % [41]: – (Only GI % higher than 10% are shown)
GI % [42]: – (Only GI % higher than 10% are shown)
GI % [43]: – (Only GI % higher than 10% are shown)

CCCn1cc(/C=N/N=C2\C(=O)Nc3ccc(OC(F)(F)F)cc32)c2ccccc21 [Compound 8b]
GI % [1]: 11%
GI % [2]: – (Only GI % higher than 10% are shown)
GI % [3]: – (Only GI % higher than 10% are shown)
GI % [4]: 32%
IC50 [5]: 9.2 ± 0.78 µM
IC50 [6]: 19.1 ± 1.34 µM
IC50 [7]: 8.9 ± 0.61 µM
GI % [8]: 52%
GI % [9]: 12%
GI % [10]: 33%
GI % [11]: 50%
GI % [12]: 30%
GI % [13]: – (Only GI % higher than 10% are shown)
GI % [14]: 28%
GI % [15]: 40%
GI % [16]: – (Only GI % higher than 10% are shown)
GI % [17]: 25%
GI % [18]: – (Only GI % higher than 10% are shown)
GI % [19]: – (Only GI % higher than 10% are shown)
GI % [20]: – (Only GI % higher than 10% are shown)
GI % [21]: – (Only GI % higher than 10% are shown)
GI % [22]: – (Only GI % higher than 10% are shown)
GI % [23]: – (Only GI % higher than 10% are shown)
GI % [24]: – (Only GI % higher than 10% are shown)
GI % [25]: – (Only GI % higher than 10% are shown)
GI % [26]: – (Only GI % higher than 10% are shown)
GI % [27]: – (Only GI % higher than 10% are shown)
GI % [28]: – (Only GI % higher than 10% are shown)
GI % [29]: – (Only GI % higher than 10% are shown)
GI % [30]: – (Only GI % higher than 10% are shown)
GI % [31]: – (Only GI % higher than 10% are shown)
GI % [32]: 15%
GI % [33]: – (Only GI % higher than 10% are shown)
GI % [34]: – (Only GI % higher than 10% are shown)
GI % [35]: 15%
GI % [36]: – (Only GI % higher than 10% are shown)
GI % [37]: – (Only GI % higher than 10% are shown)
GI % [38]: 19%
GI % [39]: 29%
GI % [40]: – (Only GI % higher than 10% are shown)
GI % [41]: – (Only GI % higher than 10% are shown)
GI % [42]: 35%
GI % [43]: – (Only GI % higher than 10% are shown)
